From patent US20090131356A1, “miR-15, miR-26, miR-31, miR-145, miR-147, miR-188, miR-215, miR-216, miR-331, mmu-miR-292-3P REGULATED GENES AND PATHWAYS AS TARGETS FOR THERAPEUTIC INTERVENTION” (ASURAGEN, INC., priority 2006, published 2009)

Assays:
Assay type in all cases: cell-based, human
H838 cells = assay: Alamar Blue proliferation assay, H838
Source text: (§1) The inventors assessed the therapeutic effect of hsa-miR-147 for lung cancer by using 12 individual lung cancer cell lines. To measure cellular proliferation of lung cancer cells, the following parental non-small cell lung cancer (NSCLC) cells were used: cells derived from lung adenocarcinoma (A549, H1299, H522, H838, Calu-3, HCC827, HCC2935), cells derived from lung squamous cell carcinoma (H520, H226), cells derived from lung adenosquamous cell carcinoma (H596), cells derived from lung bronchioalveolar carcinoma (H1650), and cells derived from lung large cell carcinoma (H460). In addition to these parental cell lines, highly metastatic NSCLC cells were used that stably express the firefly luciferase gene: A549-luc, H460-luc, HCC827-luc, H1650-luc, H441-luc. Unlike the parental cell lines, these metastatic cells readily migrate to distant sites of the test animal and form metastases upon subcutaneous, orthotopic, or intravenous injection. Synthetic hsa-miR-147 or negative control miRNA was delivered via lipid-based transfection into A549, H1299, H522, H838, Calu-3, HCC827, HCC2935, H520, H596, H1650, H460, A549-luc, H460-luc, HCC827-luc, H1650-luc, H441-luc cells and via electroporation into H226 cells. Lipid-based reverse transfection was carried out in triplicates according to a published protocol and the following parameters: 5000-12000 cells per 96 well, 0.1-0.2 μl lipofectamine-2000 (Invitrogen, Carlsbad, Calif.) in 20 μl OptiMEM (Invitrogen), […] final concentration of miRNA in 100 μl (Ovcharenko et al., 2005). Electroporation of H226 cells was carried out using the BioRad GenePulserXcell™ instrument with the following settings: 5×10^6 cells with 5 μg miRNA in 200 μl OptiMEM, square wave pulse at 250 V for 5 ms. Electroporated H226 cells were seeded at 7000 cells per 96-well in a total volume of 100 μl. All cells except for Calu-3 cells were harvested 72 hours post transfection or electroporation for assessment of cellular proliferation. Calu-3 cells were harvested 10 days post transfection. […]

Calu-3 cells = assay: Alamar Blue proliferation assay, Calu-3
Source text: as §1

HCC827 cells = assay: Alamar Blue proliferation assay, HCC827
Source text: as §1

H1650 cells = assay: Alamar Blue proliferation assay, H1650
Source text: as §1

H460 cells = assay: Alamar Blue proliferation assay, H460
Source text: as §1

A549-luc cells = assay: Alamar Blue proliferation assay, A549-luc
Source text: as §1

H460-luc cells = assay: Alamar Blue proliferation assay, H460-luc
Source text: as §1

H1650-luc cells = assay: Alamar Blue proliferation assay, H1650-luc
Source text: as §1

H441-luc cells = assay: Alamar Blue proliferation assay, H441-luc
Source text: as §1

H460 lung cancer cells = assay: Alamar Blue proliferation assay of pair-wise miRNA combinations; conditions: for % proliferation: H460 cells, normalized to 600 pM negative control (NC) miRNA
Source text: miRNAs function in multiple pathways controlling multiple cellular processes. Cancer cells frequently show aberrations in several different pathways which determine their oncogenic properties. Therefore, combinations of multiple miRNAs may provide a better therapeutic benefit rather than a single miRNA. The inventors assessed the efficacy of pair-wise miRNA combinations, administering hsa-miR-147 concurrently with hsa-miR-124a, hsa-miR-126, hsa-let7b, hsa-let-7c or hsa-let7g. H460 lung cancer cells were transiently reverse transfected in triplicates with each miRNA at a final concentration of 300 pM, totaling in 600 pM of oligonucleotide. As a negative control, 600 pM of negative control miRNA (pre-miR NC#2, Ambion) was used. To correlate the effect of various combinations with the effect of the sole miRNA, each miRNA at 300 pM was also combined with 300 pM negative control miRNA. Reverse transfection was carried using the following parameters: 7000 cells per 96 well, 0.15 μl lipofectamine2000 (Invitrogen) in 20 μl OptiMEM (Invitrogen), 100 μl total transfection volume. […] Cells were harvested 72 hours after transfection and subjected to Alamar Blue assays (Invitrogen). Alamar Blue values were normalized to the ones obtained from cells treated with 600 pM negative control miRNA. Data are expressed as % proliferation relative to negative control miRNA-treated cells.
As shown in FIG. 4 and Table 9, transfection of 300 pM hsa-miR-147 reduces proliferation of H460 cells by 23%. […] Additive activity of pair-wise combinations (e.g., hsa-miR-147 plus hsa-miR-124a) is defined as an activity that is greater than the sole activity of each miRNA (e.g., activity of hsa-miR-147 plus hsa-miR-124a>hsa-miR-147 plus NC AND activity of hsa-miR-147 plus hsa-miR-124a>hsa-miR-124a plus NC). Synergistic activity of pair-wise combinations is defined as an activity that is greater than the sum of the sole activity of each miRNA (e.g., activity of hsa-miR-147 plus hsa-miR-124a>SUM [activity of hsa-miR-147 plus NC AND activity of hsa-miR-124a plus NC]). […]

[1] = etoposide 10 μM, normalized to negative control miRNA (100%)
[2] = etoposide 50 μM, normalized to negative control miRNA (100%)
[3] = 30 nM, normalized to negative control miRNA (100% proliferation)

For COc1cc([C@@H]2c3cc4c(cc3[C@@H](O[C@@H]3O[C@@H]5CO[C@@H](C)O[C@H]5[C@H](O)[C@H]3O)[C@H]3COC(=O)[C@H]23)OCO4)cc(OC)c1O [Etoposide, etoposide], the “% proliferation” value (H838 cells; [1]) was 89.71%, the “% proliferation” value (H838 cells; [2]) was 36.97% and the “% proliferation” value (Calu-3 cells; [1]) was 20.81%. For the same compound, the “% proliferation” value (Calu-3 cells; [2]) was 13.53%, the “% proliferation” value (HCC827 cells; [1]) was 98.95% and the “% proliferation” value (HCC827 cells; [2]) was 82.53%. The “% proliferation” value (H1650 cells; [1]) was 90.98%, the “% proliferation” value (H1650 cells; [2]) was 60.31% and the “% proliferation” value (H460 cells; [1]) was 32.13%. For the same compound, the “% proliferation” value (H460 cells; [2]) was 27.82%, the “% proliferation” value (A549-luc cells; [1]) was 8.56% and the “% proliferation” value (A549-luc cells; [2]) was 0.72%. For the same compound, the “% proliferation” value (H460-luc cells; [1]) was 15.04%, the “% proliferation” value (H460-luc cells; [2]) was 2.34% and the “% proliferation” value (H1650-luc cells; [1]) was 33.78%. For the same compound, the “% proliferation” value (H1650-luc cells; [2]) was 5.59%, the “% proliferation” value (H441-luc cells; [1]) was 41.22% and the “% proliferation” value (H441-luc cells; [2]) was 1.99%. The “% proliferation” value (H460 lung cancer cells; etoposide 10 μM) was 20.19% and the “% proliferation” value (H460 lung cancer cells; etoposide 50 μM) was 14.94%.
With “hsa-miR-147: Synthetic pre-miR-147 (Ambion AM17100; Dharmacon in vivo); mature sequence GUGUGUGGAAAUGCUUCUGC, MIMAT0000251, SEQ ID NO:114 (synthetic pre-miR (Ambion/Dharmacon), chemistry not given here; listed as Homo sapiens)” the “% proliferation” value (H838 cells; [3]) was 71.44%, the “% proliferation” value (Calu-3 cells; [3]) was 37.62% and the “% proliferation” value (HCC827 cells; [3]) was 76.18%. For the same compound, the “% proliferation” value (H1650 cells; [3]) was 84.61%, the “% proliferation” value (H460 cells; [3]) was 72.11% and the “% proliferation” value (A549-luc cells; [3]) was 75.69%. For the same compound, the “% proliferation” value (H460-luc cells; [3]) was 39.54%, the “% proliferation” value (H1650-luc cells; [3]) was 59.27% and the “% proliferation” value (H441-luc cells; [3]) was 55.53%. The “reduction of proliferation of H460 cells” value (H460 lung cancer cells; 300 pM single miRNA plus 300 pM negative control miRNA, 72 hours, vs 600 pM negative control miRNA) was 23%.
